Legend:
Assay in all cases: relative viability (nuclei count vs DMSO), 5 days (fraction); higher = more cells survive
Metformin + Pemetrexed = compound: CN(C)C(=N)NC(=N)N [Metformin] + Nc1nc2[nH]cc(CCc3ccc(C(=O)N[C@@H](CCC(=O)O)C(=O)O)cc3)c2c(=O)[nH]1 [Pemetrexed] (partner 0.2 µM)
Summary of the method: (§1)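 One day after seeding in 1536-well plates, lung cancer cell lines were dosed by pin tool. Dosing was either single-drug or a fixed anchor-drug dose plus five library-drug doses (not always all listed) in √10 steps. After 5 days, nuclei were stained in one fix-and-stain step and counted on 4× images, and relative viability is the nuclei count of treated wells over that of vehicle wells, given as the median of duplicate plates.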

Apatinib + OSI-027 = compound: N#CC1(c2ccc(NC(=O)c3cccnc3NCc3ccncc3)cc2)CCCC1 [Apatinib] + COc1cccc2cc(-c3nc([C@H]4CC[C@H](C(=O)O)CC4)n4ncnc(N)c34)[nH]c12 [OSI-027] (partner 0.5 µM)
Summary of the method: as §1

Apatinib + Decitabine = compound: N#CC1(c2ccc(NC(=O)c3cccnc3NCc3ccncc3)cc2)CCCC1 [Apatinib] + Nc1ncn([C@H]2C[C@H](O)[C@@H](CO)O2)c(=O)n1 [Decitabine] (partner 2 µM)
Summary of the method: as §1

Apatinib + Olaparib = compound: N#CC1(c2ccc(NC(=O)c3cccnc3NCc3ccncc3)cc2)CCCC1 [Apatinib] + O=C(c1cc(Cc2n[nH]c(=O)c3ccccc23)ccc1F)N1CCN(C(=O)C2CC2)CC1 [Olaparib] (partner 8 µM)
Summary of the method: as §1

Row | Cell Line | relative viability (Metformin + Pemetrexed; first compound 10 µM) | relative viability (Metformin + Pemetrexed; first compound 31.62 µM) | relative viability (Metformin + Pemetrexed; first compound 100 µM) | relative viability (Metformin + Pemetrexed; first compound 316.23 µM) | relative viability (Metformin + Pemetrexed; first compound 1000 µM) | relative viability (Apatinib + OSI-027; first compound 0.08 µM) | relative viability (Apatinib + OSI-027; first compound 0.253 µM) | relative viability (Apatinib + OSI-027; first compound 0.8 µM) | relative viability (Apatinib + OSI-027; first compound 2.53 µM) | relative viability (Apatinib + OSI-027; first compound 8 µM) | relative viability (Apatinib + Decitabine; first compound 0.08 µM) | relative viability (Apatinib + Decitabine; first compound 0.253 µM) | relative viability (Apatinib + Decitabine; first compound 0.8 µM) | relative viability (Apatinib + Decitabine; first compound 2.53 µM) | relative viability (Apatinib + Decitabine; first compound 8 µM) | relative viability (Apatinib + Olaparib; first compound 0.08 µM) | relative viability (Apatinib + Olaparib; first compound 0.253 µM) | relative viability (Apatinib + Olaparib; first compound 0.8 µM) | relative viability (Apatinib + Olaparib; first compound 2.53 µM) | relative viability (Apatinib + Olaparib; first compound 8 µM)
1 | NCI-H1437 | 0.347 | 0.336 | 0.343 | 0.352 | 0.317 | 0.84 | 0.954 | 0.861 | 0.615 | 0.645 | 0.583 | 0.584 | 0.524 | 0.505 | 0.46 | 0.61 | 0.663 | 0.57 | 0.574 | 0.496
2 | H3255 | 0.55 | 0.556 | 0.567 | 0.5 | 0.564 | 0.551 | 0.569 | 0.539 | 0.51 | 0.535 | 0.707 | 0.553 | 0.578 | 0.542 | 0.517 | 0.621 | 0.627 | 0.609 | 0.516 | 0.455
3 | NCI-H322M | 0.68 | 0.621 | 0.644 | 0.606 | 0.594 | 0.551 | 0.533 | 0.52 | 0.518 | 0.46 | 0.75 | 0.709 | 0.64 | 0.833 | 0.783 | 0.791 | 0.759 | 0.686 | 0.772 | 0.805
4 | LCLC-103H | 0.446 | 0.485 | 0.434 | 0.446 | 0.445 | 0.495 | 0.477 | 0.384 | 0.401 | 0.457 | 0.792 | 0.739 | 0.687 | 0.726 | 0.744 | 0.753 | 0.713 | 0.745 | 0.712 | 0.753
5 | PC-14 | 0.167 | 0.154 | 0.164 | 0.14 | 0.157 | 0.805 | 0.956 | 0.596 | 0.748 | 0.602 | 0.28 | 0.293 | 0.189 | 0.228 | 0.28 | 0.278 | 0.28 | 0.222 | 0.213 | 0.252
6 | NCI-H2009 | 0.874 | 0.943 | 0.891 | 0.814 | 0.891 | 0.796 | 0.617 | 0.536 | 0.337 | 0.193 | 0.367 | 0.411 | 0.35 | 0.508 | 0.581 | 0.722 | 0.651 | 0.64 | 0.431 | 0.443
7 | NCI-H2347 | 0.406 | 0.482 | 0.408 | 0.465 | 0.399 | 0.478 | 0.354 | 0.48 | 0.361 | 0.282 | 0.666 | 0.592 | 0.67 | 0.674 | 0.804 | 0.634 | 0.485 | 0.583 | 0.517 | 0.493
8 | NCI-H23 | 0.679 | 0.852 | 0.652 | 0.586 | 0.79 | 0.637 | 0.658 | 0.535 | 0.46 | 0.377 | 0.32 | 0.333 | 0.304 | 0.332 | 0.475 | 0.305 | 0.322 | 0.301 | 0.316 | 0.238

Source: the supplement of paper PMC10307832
